In brackets after ≈: the same amount, converted by molar mass.

One assay relates to Trichophyton mentagrophytes. Nature of the assay: Topical application in experimental trichophytosis of guinea pigs. The arrangement: key: ++: slight action = reduction of symptons of the infection; +++: action = rapid healing of the infection; ++++: good action = complete suppression of symptoms of the infection. Conditions: 1% strength solution, topically for 11 to 14 days. The class given is in vivo. From the text:
a. Topical application in experimental trichophytosis of guinea pigs (excitant: Trichophyton mentagrophytes)
A 1% strength solution of the active compound in a dimethylsulphoxide/glycerine/water mixture (1:3:6) or in polyethylene glycol 400 was applied topically for 11 to 14 days after the trichophytosis had been caused experimentally.
As for `Cc1ccc(C(c2ccccc2)(c2ccccc2)n2ccnc2)c(C)c1` [Example 2], the “Action in trichophytosis of guinea pigs” value was “++++”.
Still for that read-out and setting: the entry for `Clc1cccc(C(c2ccccc2)(c2ccccc2)n2ccnc2)c1Cl` [Example 6] is “++”.

A further assay deals with Penicillium commune. Nature of the assay: Antimycotic activity in vitro, series dilution test. Conditions: 28° C, 24 to 96 hours, serum not stated, read-out: Minimum Inhibitory Concentration. The assay is classed as cell-based. Here is the method: (§1) Determination of the antimycotic spectrum of activity in vitro by the series dilution test.
(§2) The nutrient media used were Sabouraud's milieu d'epreuve for dermatophytes and molds and meat broth-glucose bouillon for blastomycetes and biphase fungi.
(§3) The incubation temperature was 28° C and the incubation time was 24 to 96 hours.
`Cc1cccc(C(c2ccccc2)(c2ccccc2)n2ccnc2)c1C` [Example 1 (from Table 1), 1-(2,3-dimethylphenyl-diphenyl)-methyl-imidazole]: the MIC is below 1 mg/L.
Still for that read-out and setting: the figure for `Cc1ccc(C(c2ccccc2)(c2ccccc2)n2ccnc2)c(C)c1` [Example 2] is 100 mg/L (≈ 295 µM).
Take `Cc1ccc(C)c(C(c2ccccc2)(c2ccccc2)n2ccnc2)c1` [Example 3 (from Table 1), 1-(2,5-Dimethylphenyl-diphenyl)-methyl-imidazole]: the MIC was found to be 4 mg/L (≈ 11.8 µM).
The same measure, in the same setting: the figure for `Cc1cc(Cl)ccc1C(c1ccccc1)(c1ccccc1)n1ccnc1` [Example 4 (from Table 1), 1-(2-Methyl-4-chlorophenyl-diphenyl)-methyl-imidazole] is 4 mg/L (≈ 11.1 µM); for `Clc1cccc(C(c2ccccc2)(c2ccccc2)n2ccnc2)c1Cl` [Example 6] it is 4 mg/L (≈ 10.5 µM).
`Clc1cccc(Cl)c1C(c1ccccc1)(c1ccccc1)n1ccnc1` [Example 7 (from Table 1), 1-(2,6-Dichlorophenyl-diphenyl)-methyl-imidazole]: the MIC is 4 mg/L (≈ 10.5 µM).
Still for that read-out and setting: the figure for `Cc1ccccc1C(c1ccccc1)(c1ccccc1C)n1ccnc1` [Example 8 (from Table 1), 1-(2-Methylphenyl-2'-methylphenyl-phenyl)-methyl-imidazole] is 10 mg/L (≈ 29.5 µM); for `Clc1ccccc1C(c1ccccc1)(c1ccccc1Cl)n1ccnc1` [Example 9 (from Table 1), 1-(2-Chlorophenyl-2'-chlorophenyl-phenyl) -methyl-imidazole] it is 1 mg/L (≈ 2.64 µM).

The next assay concerns Trichophyton mentagrophytes. Described as above. To be noted: n.s. = no added serum, 28° C, 24 to 96 hours, read-out: Minimum Inhibitory Concentration. The class given is cell-based. Here is the method:
as §1, §2, §3
For `Cc1ccc(C(c2ccccc2)(c2ccccc2)n2ccnc2)c(C)c1` [Example 2], the MIC is below 1 mg/L.
Still for that read-out and setting: in the case of `Clc1cccc(C(c2ccccc2)(c2ccccc2)n2ccnc2)c1Cl` [Example 6] it was below 1 mg/L.

The same assay, now with this note: w.s. = with 30% serum added, 28° C, 24 to 96 hours, read-out: Minimum Inhibitory Concentration.
For the compound `Cc1ccc(C(c2ccccc2)(c2ccccc2)n2ccnc2)c(C)c1` [Example 2], the MIC turned out to be 10 mg/L (≈ 29.5 µM).
In the case of `Clc1cccc(C(c2ccccc2)(c2ccccc2)n2ccnc2)c1Cl` [Example 6], the MIC came out at 4 mg/L (≈ 10.5 µM).

A further assay has as its system Aspergillus niger. The assay is described as above. The assay is classed as cell-based. To be noted: n.s. = no added serum, 28° C, 24 to 96 hours, read-out: Minimum Inhibitory Concentration. Here is the method: as §1, §2, §3
Take `Cc1ccc(C(c2ccccc2)(c2ccccc2)n2ccnc2)c(C)c1` [Example 2]: the MIC came to 1 mg/L (≈ 2.95 µM).
In the case of `Cc1ccc(C)c(C(c2ccccc2)(c2ccccc2)n2ccnc2)c1` [Example 3 (from Table 1), 1-(2,5-Dimethylphenyl-diphenyl)-methyl-imidazole], the MIC was 1 mg/L (≈ 2.95 µM).
On to `Cc1cc(Cl)ccc1C(c1ccccc1)(c1ccccc1)n1ccnc1` [Example 4 (from Table 1), 1-(2-Methyl-4-chlorophenyl-diphenyl)-methyl-imidazole], for which the MIC was 1 mg/L (≈ 2.79 µM).
Consider `Clc1cccc(C(c2ccccc2)(c2ccccc2)n2ccnc2)c1Cl` [Example 6], for which the MIC is below 1 mg/L.
Consider `Clc1cccc(Cl)c1C(c1ccccc1)(c1ccccc1)n1ccnc1` [Example 7 (from Table 1), 1-(2,6-Dichlorophenyl-diphenyl)-methyl-imidazole], for which the MIC is below 1 mg/L.
In the case of `Cc1ccccc1C(c1ccccc1)(c1ccccc1C)n1ccnc1` [Example 8 (from Table 1), 1-(2-Methylphenyl-2'-methylphenyl-phenyl)-methyl-imidazole], the MIC is below 1 mg/L.
Still for that read-out and setting: the figure for `Clc1ccccc1C(c1ccccc1)(c1ccccc1Cl)n1ccnc1` [Example 9 (from Table 1), 1-(2-Chlorophenyl-2'-chlorophenyl-phenyl) -methyl-imidazole] is below 1 mg/L.

Still in this assay, the particulars now being: w.s. = with 30% serum added, 28° C, 24 to 96 hours, read-out: Minimum Inhibitory Concentration.
As to `Cc1ccc(C(c2ccccc2)(c2ccccc2)n2ccnc2)c(C)c1` [Example 2], the MIC turned out to be 4 mg/L (≈ 11.8 µM).
The same measure, in the same setting: the figure for `Cc1ccc(C)c(C(c2ccccc2)(c2ccccc2)n2ccnc2)c1` [Example 3 (from Table 1), 1-(2,5-Dimethylphenyl-diphenyl)-methyl-imidazole] is 40 mg/L (≈ 118 µM); for `Cc1cc(Cl)ccc1C(c1ccccc1)(c1ccccc1)n1ccnc1` [Example 4 (from Table 1), 1-(2-Methyl-4-chlorophenyl-diphenyl)-methyl-imidazole] it is 10 mg/L (≈ 27.9 µM).
The same measure, in the same setting: the figure for `Clc1cccc(C(c2ccccc2)(c2ccccc2)n2ccnc2)c1Cl` [Example 6] is 10 mg/L (≈ 26.4 µM); for `Clc1cccc(Cl)c1C(c1ccccc1)(c1ccccc1)n1ccnc1` [Example 7 (from Table 1), 1-(2,6-Dichlorophenyl-diphenyl)-methyl-imidazole] it is 4 mg/L (≈ 10.5 µM).
The same measure, in the same setting: the figure for `Cc1ccccc1C(c1ccccc1)(c1ccccc1C)n1ccnc1` [Example 8 (from Table 1), 1-(2-Methylphenyl-2'-methylphenyl-phenyl)-methyl-imidazole] is 10 mg/L (≈ 29.5 µM).

A further assay concerns Microsporon canis. Described as above. The assay is classed as cell-based. Conditions: 28° C, 24 to 96 hours; serum not stated; read-out: Minimum Inhibitory Concentration. As for the experimental part:
as §1, §2, §3
Consider `Cc1cccc(C(c2ccccc2)(c2ccccc2)n2ccnc2)c1C` [Example 1 (from Table 1), 1-(2,3-dimethylphenyl-diphenyl)-methyl-imidazole], for which the MIC amounted to 4 mg/L (≈ 11.8 µM).
On the same count and under the same terms, the figure for `Cc1ccc(C(c2ccccc2)(c2ccccc2)n2ccnc2)c(C)c1` [Example 2] is 4 mg/L (≈ 11.8 µM).
Still for that read-out and setting: in the case of `Cc1ccc(C)c(C(c2ccccc2)(c2ccccc2)n2ccnc2)c1` [Example 3 (from Table 1), 1-(2,5-Dimethylphenyl-diphenyl)-methyl-imidazole] it was 4 mg/L (≈ 11.8 µM); in that of `Cc1cc(Cl)ccc1C(c1ccccc1)(c1ccccc1)n1ccnc1` [Example 4 (from Table 1), 1-(2-Methyl-4-chlorophenyl-diphenyl)-methyl-imidazole], 4 mg/L (≈ 11.1 µM); in that of `Clc1cccc(C(c2ccccc2)(c2ccccc2)n2ccnc2)c1Cl` [Example 6], below 1 mg/L.
Take `Clc1cccc(Cl)c1C(c1ccccc1)(c1ccccc1)n1ccnc1` [Example 7 (from Table 1), 1-(2,6-Dichlorophenyl-diphenyl)-methyl-imidazole]: the MIC is below 1 mg/L.
As to `Cc1ccccc1C(c1ccccc1)(c1ccccc1C)n1ccnc1` [Example 8 (from Table 1), 1-(2-Methylphenyl-2'-methylphenyl-phenyl)-methyl-imidazole], the MIC was 4 mg/L (≈ 11.8 µM).
As to `Clc1ccccc1C(c1ccccc1)(c1ccccc1Cl)n1ccnc1` [Example 9 (from Table 1), 1-(2-Chlorophenyl-2'-chlorophenyl-phenyl) -methyl-imidazole], the MIC was below 1 mg/L.

The next assay deals with Candida albicans. Described as above. The assay is classed as cell-based. To be noted: n.s. = no added serum, 28° C, 24 to 96 hours, read-out: Minimum Inhibitory Concentration. As for the experimental part:
as §1, §2, §3
In the case of `Cc1ccc(C(c2ccccc2)(c2ccccc2)n2ccnc2)c(C)c1` [Example 2], the MIC is 1 mg/L (≈ 2.95 µM).
On the same count and under the same terms, in the case of `Clc1cccc(C(c2ccccc2)(c2ccccc2)n2ccnc2)c1Cl` [Example 6] it was 1 mg/L (≈ 2.64 µM).

Staying with this assay, now noted: w.s. = with 30% serum added, 28° C, 24 to 96 hours, read-out: Minimum Inhibitory Concentration.
On to `Cc1ccccc1C(c1ccccc1)(c1ccccc1C)n1ccnc1` [Example 8 (from Table 1), 1-(2-Methylphenyl-2'-methylphenyl-phenyl)-methyl-imidazole], for which the MIC came out at 10 mg/L (≈ 29.5 µM).

Source of the values: US4052409A, “Disubstituted triphenylmethylimidazoles” (Bayer Aktiengesellschaft, priority 1972, dated 1977).
